According to patent US9040523B2, “Antifungal 5,6-dihydro-4H-pyrrolo[1,2-α][1,4]-benzodiazepines and 6H-pyrrolo[1,2-α][1,4]benzodiazepines substituted with benzene derivatives” (JANSSEN PHARMACEUTICA NV, priority 2010, dated 2015):
Read-outs that look alike come from different tables or passages of the source.

Key:
[1] = tested on: Sporothrix schenkii B62482; test: Antifungal activity in vitro (resazurin susceptibility screen), Inf. A; type: cell-based; conditions: for IC50: Sporothrix
Method in brief: (§1)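 Serially diluted compounds were pre-spotted into 96-well U-bottom plates, then each well received 10^3 cfu of cryopreserved fungal inoculum in 200 μl RPMI-MOPS medium. Every plate carried a compound-free growth control (100%) and a medium-only control (0%), with resazurin as read-out.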

Microsporum canis B68128 = test: Antifungal activity in vitro (resazurin susceptibility screen), Inf. B; type: cell-based; conditions: for IC50: Microsporum canis
Method in brief: (§2)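 Each well was inoculated with 10^3 cfu of fungus onto dried, pre-spotted compound serial dilutions in RPMI-MOPS medium, with fungal growth read by resazurin. Growth was referenced to drug-free culture (100%) and medium-only (0%) controls on each plate.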

[2] = tested on: Trichophyton rubrum B68183; test: Antifungal activity in vitro (resazurin susceptibility screen), Inf. C; type: cell-based
Method in brief: as §1

[3] = tested on: Candida parapsilosis B66126; test: Antifungal activity in vitro (resazurin susceptibility screen), Inf. D; type: cell-based; conditions: for IC50: Lodderomyces parapsilosis
Method in brief: as §2

[4] = tested on: Aspergillus fumigatus B42928; test: Antifungal activity in vitro (resazurin susceptibility screen), Inf. E; type: cell-based
Method in brief: as §1

[5] = tested on: Cryptococcus neoformans B66663; test: Antifungal activity in vitro (resazurin susceptibility screen), Inf. F; type: cell-based; conditions: for IC50: Cryptococcus neoformans
Method in brief: as §1

[6] = tested on: Trichophyton mentagrophytes B70554; test: Antifungal activity in vitro (resazurin susceptibility screen), Inf. G; type: cell-based; conditions: for IC50: Trichophyton mentagrophytes
Method in brief: as §2

[7] = Liver metabolic stability assay, hLM; type: in vitro ADME, human; conditions: human liver microsomes, 1 mg protein/ml, 5 μM test compound, 15 min, 37 °C
Method: (§3) Liver preparations (microsomal fractions) were obtained from BD Gentest (San Jose, Calif., US). Metabolic stability was assessed using the following assay conditions. […] The mixture was pre-incubated at 37° C. for 5 min and the enzymatic reaction was started by addition of 5 μM test compound. After 0 (control) and 15 minutes (min), the reactions were terminated by addition of […] (500 μl). The precipitated material was removed by centrifugation at 1200 g for 10 min. The supernatant was analysed by LC-MS/MS on a ThermoFinnigan LCQ Deca XP ion-trap mass spectrometer equipped with an atmospheric pressure chemical ionisation source. Calculation of %-compound remaining was as described by Kantharaj et al. 2003 ((Kantharaj E., Tuytelaars A, Proost P E A, Ongel Z, van […] (2003). Simultaneous measurement of drug metabolic stability and identification of metabolites using ion-trap mass spectrometry.

[8] = Liver metabolic stability assay, mLM; type: in vitro ADME; conditions: mouse liver microsomes, 1 mg protein/ml, 5 μM test compound, 15 min, 37 °C
Method: as §3

[9] = Liver metabolic stability assay, gpLM; type: in vitro ADME, guinea pig
Method: as §3

[10] = tested on: Scedosporium apiospermum IHEM3817; test: Antifungal activity in vitro (resazurin susceptibility screen), Inf. H; type: cell-based; conditions: 37 °C, 48 hours, resa time 17 hours, read-out: Inf. H pIC50 (converted)
Method: (§4) The standard susceptibility screen was performed in 96-well plates (U-bottom, Greiner Bio-One). […] These serial dilutions (10 n1) were then spotted onto test-plates that could be stored in the dark at 4° C. for a maximum period of 2 weeks. […] The different fungal species/isolates (Table 3a) were cryopreserved and 1/1000 diluted in medium just prior to use. A standard inoculum of 200 μl containing 10^3 colony-forming unit (cfu) was then added to each well. A positive control (100% growth=fungal culture without antifungal) and a negative control (0% growth ═RPMI-MOPS medium) were included on each plate. […] [table]

[11] = tested on: Scedosporium prolificans IHEM21157; test: Antifungal activity in vitro (resazurin susceptibility screen), Inf. I; type: cell-based; conditions: Lomentospora prolificans, 37 °C, 48 hours, resa time 17 hours, read-out: Inf. I pIC50 (converted)
Method: as §4

Rhizopus oryzae IHEM5223 = test: Antifungal activity in vitro (resazurin susceptibility screen), Inf. J; type: cell-based; conditions: Rhizopus arrhizus, 37 °C, 24 hours, resa time 6 hours, read-out: Inf. J pIC50 (converted)
Method: as §4

[12] = tested on: Rhizomucor miehei IHEM13391; test: Antifungal activity in vitro (resazurin susceptibility screen), Inf. K; type: cell-based; conditions: 37 °C, 48 hours, resa time 17 hours, read-out: Inf. K pIC50 (converted)
Method: as §4

CYP3A4 = CYP3A4 (Homo sapiens, UniProt P08684); test: Cytochrome P450 inhibition, Protocol A, cDNA expressed proteins, fluorogenic substrates; type: in vitro ADME; conditions: % inhibition at 10 μM, cDNA expressed protein; for hCYP3A4_BFC_Pct_Inh: substrate BFC; for hCYP3A4_BQ_Pct_Inh: substrate BQ; for hCYP3A4_DBF_Pct_Inh: substrate DBF
Chain of CYP3A4 (P08684 whole entry): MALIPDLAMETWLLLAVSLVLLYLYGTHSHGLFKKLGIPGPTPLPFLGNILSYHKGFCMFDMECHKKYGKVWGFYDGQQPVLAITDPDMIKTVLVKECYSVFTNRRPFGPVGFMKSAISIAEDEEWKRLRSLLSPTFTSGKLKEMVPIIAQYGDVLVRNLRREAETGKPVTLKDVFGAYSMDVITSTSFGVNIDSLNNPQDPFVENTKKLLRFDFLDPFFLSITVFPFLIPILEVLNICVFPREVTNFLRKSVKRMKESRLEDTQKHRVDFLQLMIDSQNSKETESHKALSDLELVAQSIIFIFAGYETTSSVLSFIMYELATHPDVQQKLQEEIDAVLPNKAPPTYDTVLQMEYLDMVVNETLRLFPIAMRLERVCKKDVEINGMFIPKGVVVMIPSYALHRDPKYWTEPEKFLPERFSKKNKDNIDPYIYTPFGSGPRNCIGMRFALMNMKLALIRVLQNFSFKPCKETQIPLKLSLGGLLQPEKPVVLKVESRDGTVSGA
Method: (§5) All fluorogenic based assays were performed in Black Costar 96-well plates according to Crespi et al 1997 with minor modifications (Crespi C L, Miller V P & Penman B W (1997). Microtiter plate assays for inhibition of human, drug-metabolizing cytochromes P450. Anal. Biochem. Vol 248, 1898-1900). Assay conditions are outlined in Table 5a. For cytochrome P450 3A4, three different fluorogenic substrates were used. Each reaction mixture consisted of the appropriate concentration of enzyme, NADPH-generating system (“NADPH” means β-nicotinamide adenine dinucleotide phosphate, reduced), substrate in sodium/potassium buffer (pH 7.4). For each cytochrome P450 batch Michealis-Menten kinetics were determined using 11 concentrations.
(§6) Thereafter, further dilutions were made in acetonitrile. […] The compounds were serially diluted to give final concentrations ranging from 1 nM to 10 μM. The reaction mixtures, whereby 1 μL of buffer was replaced by compound solution, were pre-warmed for 5 min at 37° C. and the reaction was initiated by the addition of β-nicotinamide adenine dinucleotide phosphate (NADP+). Reactions were terminated by addition of stopping reagent and the fluorescence was measured using a Fluoroscan (Labsystems, Brussel, Belgium).
(§7) In Table 5a, the following abbreviations were used: 3-cyano-7-ethocycoumarin (CEC), 7-methoxy-4-trifluoromethylcoumarin (MFC), 3-[2-(N,N-diethyl-N-methylamino)ethyl]-7-methoxy-4-methylcoumarin (AMMC), 7-benzyloxy-trifluoromethyl coumarin (BFC), 7-benzyloxyquinoline (BQ) and dibenzyl fluorescein (DBF).

CYP1A2 = biological target: T1, CYP1A2 (Homo sapiens, UniProt P05177); test: Cytochrome P450 inhibition, Protocol A, cDNA expressed proteins, fluorogenic substrate; type: in vitro ADME; conditions: % inhibition at 10 μM; substrate CEC; cDNA expressed protein
T1 sequence (P05177 1-516): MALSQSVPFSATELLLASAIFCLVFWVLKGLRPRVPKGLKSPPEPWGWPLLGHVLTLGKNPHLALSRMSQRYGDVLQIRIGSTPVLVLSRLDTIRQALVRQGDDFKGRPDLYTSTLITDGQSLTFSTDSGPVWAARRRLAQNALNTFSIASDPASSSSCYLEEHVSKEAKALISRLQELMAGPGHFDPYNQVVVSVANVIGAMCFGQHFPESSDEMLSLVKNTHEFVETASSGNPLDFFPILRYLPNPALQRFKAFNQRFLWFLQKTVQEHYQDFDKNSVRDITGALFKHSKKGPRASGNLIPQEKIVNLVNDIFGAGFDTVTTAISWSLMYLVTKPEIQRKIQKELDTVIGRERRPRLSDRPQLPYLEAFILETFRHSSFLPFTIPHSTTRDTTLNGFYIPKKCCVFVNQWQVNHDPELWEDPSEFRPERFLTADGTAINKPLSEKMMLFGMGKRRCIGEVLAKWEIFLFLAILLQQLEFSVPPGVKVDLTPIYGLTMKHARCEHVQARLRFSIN
Method: as §5, §6, §7

CYP2C9 = CYP2C9 (Homo sapiens, UniProt P11712); test: as above; type: in vitro ADME; conditions: % inhibition at 10 μM; substrate MFC; cDNA expressed protein
Chain of CYP2C9 (P11712 whole entry): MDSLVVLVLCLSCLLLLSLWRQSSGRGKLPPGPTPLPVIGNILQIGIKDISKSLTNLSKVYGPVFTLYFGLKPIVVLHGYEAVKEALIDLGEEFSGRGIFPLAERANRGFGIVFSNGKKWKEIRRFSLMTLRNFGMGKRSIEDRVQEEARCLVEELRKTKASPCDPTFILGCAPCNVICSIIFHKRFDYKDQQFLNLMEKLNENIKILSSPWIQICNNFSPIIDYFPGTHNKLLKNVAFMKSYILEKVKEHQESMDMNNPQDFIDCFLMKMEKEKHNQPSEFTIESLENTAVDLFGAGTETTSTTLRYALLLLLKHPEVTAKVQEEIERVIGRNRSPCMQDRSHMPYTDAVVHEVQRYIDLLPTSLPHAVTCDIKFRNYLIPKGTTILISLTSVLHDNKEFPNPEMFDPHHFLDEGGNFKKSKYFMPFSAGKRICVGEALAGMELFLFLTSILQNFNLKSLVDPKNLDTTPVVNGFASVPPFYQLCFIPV
Method: as §5, §6, §7

CYP2D6 = CYP2D6 (Homo sapiens, UniProt P10635); test: as above; type: in vitro ADME; conditions: % inhibition at 10 μM; substrate AMMC; cDNA expressed protein
Chain of CYP2D6 (P10635 whole entry): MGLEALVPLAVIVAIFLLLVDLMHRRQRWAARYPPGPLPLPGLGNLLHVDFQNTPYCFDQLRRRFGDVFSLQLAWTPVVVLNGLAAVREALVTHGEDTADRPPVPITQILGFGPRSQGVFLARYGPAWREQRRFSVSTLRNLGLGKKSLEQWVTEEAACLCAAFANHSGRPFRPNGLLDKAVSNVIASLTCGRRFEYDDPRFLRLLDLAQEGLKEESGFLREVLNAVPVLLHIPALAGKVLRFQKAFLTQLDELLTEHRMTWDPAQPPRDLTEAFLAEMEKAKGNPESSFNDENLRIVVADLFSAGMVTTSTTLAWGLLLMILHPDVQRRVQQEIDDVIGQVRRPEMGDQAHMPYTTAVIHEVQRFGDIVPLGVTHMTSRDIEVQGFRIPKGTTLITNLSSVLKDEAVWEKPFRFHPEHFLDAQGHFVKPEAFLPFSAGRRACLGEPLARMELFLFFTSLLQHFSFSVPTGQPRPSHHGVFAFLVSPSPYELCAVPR
Method: as §5, §6, §7

[13] = B62482, Sporothrix schenkii B62482, 27 °C, 4 days, resa time 24 hours, highest in-test concentration 64 μM, read-out: Inf. A pIC50 (converted)
[14] = B68128, Microsporum canis B68128, 27 °C, 9 days, resa time 24 hours, read-out: Inf. B pIC50 (converted)
[15] = Trichophyton rubrum B68183, 27 °C, 7 days, resa time 24 hours, read-out: Inf. C pIC50 (converted)
[16] = Candida parapsilosis B66126, 37 °C, 24 hours, resa time 4 hours, read-out: Inf. D pIC50 (converted)
[17] = Aspergillus fumigatus B42928, 27 °C, 48 hours, resa time 17 hours, read-out: Inf. E pIC50 (converted)
[18] = B66663, Cryptococcus neoformans B66663, 37 °C, 24 hours, resa time 4 hours, read-out: Inf. F pIC50 (converted)
[19] = B70554, Trichophyton mentagrophytes B70554, 27 °C, 7 days, resa time 24 hours, read-out: Inf. G pIC50 (converted)
[20] = guinea pig microsomes, 1 mg protein/ml, 5 μM test compound, 15 min, 37 °C

SMILES: CC(O)c1ccc(C2NCc3c(Cl)cccc3-n3cccc32)cc1 (stereo not drawn) [Compound 1, 4-(7-chloro-5,6-dihydro-4H-pyrrolo[1,2-a][1,4]benzodiazepin-4-yl)-alpha-methyl-benzenemethanol]
- IC50 ([1]; B62482, read-out: Inf. A pIC50 (converted)): > 63.1 µM
- IC50 (Microsporum canis B68128; B68128, read-out: Inf. B pIC50 (converted)): 3.16 µM
- IC50 ([2]; Trichophyton rubrum, B68183, read-out: Inf. C pIC50 (converted)): 3.16 µM
- IC50 ([3]; B66126, read-out: Inf. D pIC50 (converted)): > 63.1 µM
- IC50 ([4]; Aspergillus fumigatus, B42928, read-out: Inf. E pIC50 (converted)): > 63.1 µM
- IC50 ([5]; B66663, read-out: Inf. F pIC50 (converted)): 63.1 µM
- IC50 ([6]; B70554, read-out: Inf. G pIC50 (converted)): 12.6 µM
- %-compound metabolised_Met_hLM [7]: 43%
- %-compound metabolised Met_mLM [8]: 51%
- %-compound metabolised Met_gpLM ([9]; guinea pig, microsomes, 0.25 h, 5 μM, pH 7.4): 86%
- melting point: 118.5 to 121.2 °C

SMILES: CC(=O)c1ccc(C2=NCc3c(Cl)cccc3-n3cccc32)cc1 [Compound 17, 1-[4-(7-chloro-6H-pyrrolo[1,2-a][1,4]benzodiazepin-4-yl)phenyl]-ethanone]
- IC50 [1, 13]: > 31.6 µM
- IC50 (Microsporum canis B68128; [14]): 0.2 µM
- IC50 [2, 15]: 0.0398 µM
- IC50 [3, 16]: > 31.6 µM
- IC50 [4, 17]: > 31.6 µM
- IC50 [5, 18]: > 31.6 µM
- IC50 [6, 19]: 0.251 µM
- IC50 [10]: > 63.1 µM
- IC50 [11]: > 63.1 µM
- IC50 (Rhizopus oryzae IHEM5223): > 63.1 µM
- IC50 [12]: > 63.1 µM
- %-compound metabolised_Met_hLM [7]: 50%
- %-compound metabolised Met_mLM [8]: 70%
- %-compound metabolised Met_gpLM [9, 20]: 84%
- melting point: 252.3 to 252.6 °C

SMILES: CC(=O)c1ccc(C2=NCc3c(ccc(Cl)c3Cl)-n3cccc32)cc1.Cl [Compound 21, 1-[4-(7,8-dichloro-6H-pyrrolo[1,2-a][1,4]benzodiazepin-4-yl)phenyl]-ethanone .HCl]
- Inf. A pIC50 ([1]; Sporothrix schenkii B62482, 27 °C, 4 days, resa time 24 hours, highest in-test concentration 64 μM): <4.2
- Inf. B pIC50 (Microsporum canis B68128; Microsporum canis B68128, 27 °C, 9 days, resa time 24 hours): <4.2
- Inf. C pIC50 ([2]; Trichophyton rubrum B68183, 27 °C, 7 days, resa time 24 hours): <4.2
- Inf. D pIC50 ([3]; Candida parapsilosis B66126, 37 °C, 24 hours, resa time 4 hours): <4.2
- Inf. E pIC50 ([4]; Aspergillus fumigatus B42928, 27 °C, 48 hours, resa time 17 hours): <4.2
- Inf. F pIC50 ([5]; Cryptococcus neoformans B66663, 37 °C, 24 hours, resa time 4 hours): <4.2
- Inf. G pIC50 ([6]; Trichophyton mentagrophytes B70554, 27 °C, 7 days, resa time 24 hours): <4.2
- %-compound metabolised_Met_hLM [7]: 17%
- %-compound metabolised Met_mLM [8]: 24%
- %-compound metabolised Met_gpLM [9, 20]: 64%
- hCYP3A4_BFC_Pct_Inh (CYP3A4): 0%
- hCYP3A4_BQ_Pct_Inh (CYP3A4): 26%
- hCYP3A4_DBF_Pct_Inh (CYP3A4): 26%
- hCYP1A2_CEC_Pct_Inh (CYP1A2): 27%
- hCYP2C9_MFC_Pct_Inh (CYP2C9): 54%
- hCYP2D6_AMMC_Pct_Inh (CYP2D6): 39%

SMILES: CC(=O)c1ccc(C2=NCc3cc(Cl)cc(Cl)c3-n3cccc32)cc1 [Compound 26, 1-[4-(8,10-dichloro-6H-pyrrolo[1,2-a][1,4]benzodiazepin-4-yl)phenyl]-ethanone]
- IC50 [1, 13]: 1.26 µM
- IC50 (Microsporum canis B68128; [14]): 0.631 µM
- IC50 [2, 15]: 0.0794 µM
- IC50 [3, 16]: > 63.1 µM
- IC50 [4, 17]: 1.58 µM
- IC50 [5, 18]: 10 µM
- IC50 [6, 19]: 3.98 µM
- %-compound metabolised_Met_hLM [7]: 19%
- %-compound metabolised Met_mLM [8]: 45%
- %-compound metabolised Met_gpLM [9, 20]: 44%
- hCYP3A4_BFC_Pct_Inh (CYP3A4): 33%
- hCYP3A4_BQ_Pct_Inh (CYP3A4): 32%
- hCYP3A4_DBF_Pct_Inh (CYP3A4): 55%
- hCYP1A2_CEC_Pct_Inh (CYP1A2): 34%
- hCYP2C9_MFC_Pct_Inh (CYP2C9): 69%
- hCYP2D6_AMMC_Pct_Inh (CYP2D6): 74%
- melting point: 183.6 to 186.7 °C
